What was measured:
[1] = target: T1, human CK2 protein kinase (holoenzyme) (Homo sapiens, UniProt P68400); test: Inhibition of recombinant human CK2 protein kinase (holoenzyme), radiometric filter assay with peptide […]; format: biochemical; settings: for inhibition at 10 µM: 10 μM compound, DMSO control = 100% CK2 activity, at least three independent experiments; for IC50: concentration range 30 μM to 0.01 μM, 100 μM ATP in assay buffer
T1 construct: made in house; host or cells: E. coli BL21(DE3), pT7-7 or bicistronic pET11d-CK2α, β
T1 sequence (P68400 whole entry): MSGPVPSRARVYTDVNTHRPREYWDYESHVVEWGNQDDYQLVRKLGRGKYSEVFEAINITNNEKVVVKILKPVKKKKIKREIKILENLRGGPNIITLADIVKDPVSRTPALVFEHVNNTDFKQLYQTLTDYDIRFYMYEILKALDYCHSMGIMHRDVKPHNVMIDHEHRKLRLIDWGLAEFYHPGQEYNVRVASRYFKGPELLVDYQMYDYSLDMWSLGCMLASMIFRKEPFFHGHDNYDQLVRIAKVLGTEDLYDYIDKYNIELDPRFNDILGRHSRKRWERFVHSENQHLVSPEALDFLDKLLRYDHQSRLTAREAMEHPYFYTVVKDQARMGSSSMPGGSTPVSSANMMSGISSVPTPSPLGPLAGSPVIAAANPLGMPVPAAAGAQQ
T1 sequence (P67870 whole entry partner): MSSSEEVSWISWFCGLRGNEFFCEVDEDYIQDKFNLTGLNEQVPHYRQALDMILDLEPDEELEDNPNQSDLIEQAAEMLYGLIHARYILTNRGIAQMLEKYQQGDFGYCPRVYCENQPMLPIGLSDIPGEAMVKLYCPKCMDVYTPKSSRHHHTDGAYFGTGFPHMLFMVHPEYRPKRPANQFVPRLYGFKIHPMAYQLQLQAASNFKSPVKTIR

[2] = system: MCF-7; test: Proliferation of tumor cell lines (Bracht et al.); format: cell-based; settings: Homo sapiens, MCF7, read-out: IC50 (μM) Mean, inhibition of cell proliferation
[3] = system: 5637; test: Proliferation of tumor cell lines (Bracht et al.); format: cell-based; settings: for activity at 20 µM: 5637, tested at 20 μM
[4] = system: RT-4; test: Proliferation of tumor cell lines (Bracht et al.); format: cell-based; settings: Homo sapiens, read-out: IC50 (μM) Mean, inhibition of cell proliferation
[5] = system: KYSE-70; test: Proliferation of tumor cell lines (Bracht et al.); format: cell-based; settings: Homo sapiens; for activity at 20 µM: KYSE-70, tested at 20 μM
[6] = system: SISO; test: Proliferation of tumor cell lines (Bracht et al.); format: cell-based; settings: for activity at 20 µM: tested at 20 μM
[7] = system: LCLC; test: Proliferation of tumor cell lines (Bracht et al.); format: cell-based; settings: read-out: IC50 (μM) Mean, inhibition of cell proliferation
[8] = system: DAN-G; test: Proliferation of tumor cell lines (Bracht et al.); format: cell-based; settings: read-out: IC50 (μM) Mean, inhibition of cell proliferation
[9] = system: A427; test: Proliferation of tumor cell lines (Bracht et al.); format: cell-based; settings: Homo sapiens, A-427, read-out: IC50 (μM) Mean, inhibition of cell proliferation
[10] = system: CK2; settings: known CK2 inhibitors, investigated predominantly on the rat enzyme; cited from earlier work

Row | Compound | activity at 20 µM ([3]; read-out: T/C (%) Mean) [%] | activity at 20 µM ([5]; read-out: T/C (%) Mean) [%] | activity at 20 µM ([6]; read-out: T/C (%) Mean) [%] | melting point | other results
1 | O=C1CCCc2c1c1c(n2CCc2ccccc2)-c2ccccc2C1=O [Compound 4d, 5-Phenethyl-5,6,7,8-tetrahydro-indeno[1,2-b]indole-9,10-dione] | 48 | 67.5 | 65.5 | – | inhibition at 10 µM [1]: 67%; IC50 [1]: 0.82 µM; IC50 [2]: 6.53 µM; IC50 ([3]; 5637, read-out: IC50 (μM) Mean, inhibition of cell proliferation): 10.7 µM; IC50 [4]: > 20 µM; IC50 ([5]; KYSE-70, read-out: IC50 (μM) Mean, inhibition of cell proliferation): > 20 µM; IC50 ([6]; read-out: IC50 (μM) Mean, inhibition of cell proliferation): 12.3 µM; IC50 [7]: 5.66 µM; IC50 [8]: > 20 µM; IC50 [9]: > 20 µM
2 | O=C1CCCc2c1c1c(n2Cc2ccccc2)-c2ccccc2C1=O [Compound 4c, 5-Benzyl-5,6,7,8-tetrahydroindeno[1,2-b]indole-9,10-dione] | 53.6 | 65.8 | 86.4 | 185 °C | –
3 | O=C1CCCc2c1c1c(n2CCO)-c2ccccc2C1=O [Example 14, 5-(2-Hydroxyethyl)-5,6,7,8-tetrahydro-indeno[1,2-b]indole-9,10-dione] | – | – | – | 262 to 263 °C | –
4 | COc1ccc(CCn2c3c(c4c2-c2ccccc2C4=O)C(=O)CCC3)cc1OC [Compound 4j, 5-[2-(3,4-Dimethoxyphenyl)ethyl]-5,6,7,8-tetrahydroindeno[1,2-b]indole-9,10-dione] | 101 | 91.5 | 105 | – | –
5 | COC(=O)C1C(=O)c2c([nH]c3c2C(=O)c2ccccc2-3)CC1C (stereo not shown) [Compound 4l, Methyl 7-methyl-9,10-dioxo-5,6,7,8,9,10-hexahydroindeno[1,2-b]indole-8-carboxylate] | 79.1 | 98.8 | 104 | 287 °C | –
6 | COC(=O)C1C(=O)c2c3c(n(-c4ccccc4)c2CC1C)-c1ccccc1C3=O (stereo not shown) [Example 20, Methyl 7-methyl-9,10-dioxo-5-phenyl-5,6,7,8,9,10-hexahydroindeno[1,2-b]indole-8-carboxylate] | – | – | – | 249 to 250 °C | –
7 | O=C1CCCc2c1c1c(n2-c2ccccc2)-c2ccccc2C1=O [Compound 4g, 5-Phenyl-5,6,7,8-tetrahydroindeno[1,2-b]indole-9,10-dione] | – | – | – | – | inhibition at 10 µM [1]: 60%; IC50 [1]: 1.44 µM; activity at 10 µM ([3]; 5637, tested at 10 μM (**), read-out: T/C (%) Mean): 86.3%; activity at 10 µM ([5]; KYSE-70, tested at 10 μM (**), read-out: T/C (%) Mean): 81.8%; activity at 10 µM ([6]; tested at 10 μM (**), read-out: T/C (%) Mean): 101%
8 | O=C(O)Cn1c2c(c3c1-c1ccccc1C3=O)C(=O)CCC2 [Example 13, (9,10-Dioxo-6,8,9,10-tetrahydro-7H-indeno[1,2-b]indol-5-yl)acetic acid] | – | – | – | 279 to 280 °C (dec.) | –
9 | CC1CC(=O)c2c3c(n(CCc4ccccc4)c2C1)-c1ccccc1C3=O (stereo not shown) [Compound 4p, 7-Methyl-5-phenethyl-5,6,7,8-tetrahydro-indeno[1,2-b]indole-9,10-dione] | 49.8 | 72.1 | 96.3 | – | –
10 | CN(C)CCn1c2c(c3c1-c1ccccc1C3=O)C(=O)CCC2 [Example 11, 5-(2-Dimethylaminoethyl)-5,6,7,8-tetra-hydroindeno[1,2-b]indole-9,10-dione] | – | – | – | 178 °C | –
11 | CC(C)n1c2c(c3c(O)cccc31)C(=O)c1ccccc1-2 [Compound 5b, 9-Hydroxy-5-isopropyl-5H-indeno[1,2-b]indol-10-one] | 77.5 | 77.6 | 104 | – | –
12 | O=c1ccc(=O)c2c1c1c(=O)c3ccccc3c1n2CCc1ccccc1 [Compound 6d, 5-Phenethyl-5H-indeno[1,2-b]indole-6,9,10-trione] | – | – | – | – | inhibition at 10 µM [1]: 70%; IC50 [1]: 5.74 µM; activity at 5 µM ([3]; 5637, tested at 5 μM (*), read-out: T/C (%) Mean): 69.7%; activity at 5 µM ([5]; KYSE-70, tested at 5 μM (*), read-out: T/C (%) Mean): 92%; activity at 5 µM ([6]; tested at 5 μM (*), read-out: T/C (%) Mean): 87.2%
13 | CCOCCCn1c2c(c3c1-c1ccccc1C3=O)C(=O)CCC2 [Example 16, 5-Ethoxypropyl-5,6,7,8-tetrahydro-indeno[1,2-b]indole-9,10-dione] | – | – | – | 129 °C | –
14 | O=C1CC(c2ccccc2)Cc2c1c1c(n2Cc2ccccc2)-c2ccccc2C1=O (stereo not shown) [Compound 4n, 5-Benzyl-7-phenyl-5,6,7,8-tetrahydro-indeno[1,2-b]indole-9,10-dione] | 39.4 | 75.2 | 80.9 | – | –
15 | COc1ccc(Cn2c3c(c4c2-c2ccccc2C4=O)C(=O)CCC3)cc1 [Compound 4i, 5-(4-Methoxybenzyl)-5,6,7,8-tetrahydro-indeno[1,2-b]indole-9,10-dione] | 78.2 | 79.2 | 93.6 | 198 to 199 °C | –
16 | O=C1CCCc2c1c1c(n2CCCO)-c2ccccc2C1=O [Example 12, 5-(3-Hydroxypropyl)-5,6,7,8-tetrahydro-indeno[1,2-b]indole-9,10-dione] | – | – | – | 241 °C | –
17 | Cc1cc(O)c2c(c1)C(=O)c1cc(O)cc(O)c1C2=O [emodin] | – | – | – | – | IC50 [10]: 2 µM
18 | O=C1CCCc2[nH]c3c(c21)C(=O)c1ccccc1-3 [Compound 4a, 5,6,7,8-Tetrahydroindeno[1,2-b]indole-9,10-dione] | 80.9 | 77.5 | 99.9 | 332 to 333 °C | –
19 | COc1ccc(CCn2c3c(c4c2-c2ccccc2C4=O)C(=O)CCC3)cc1OC (hydrate or solvate) [Compound 4j, 5-[2-(3,4-Dimethoxyphenyl)ethyl]-5,6,7,8-tetrahydroindeno[1,2-b]indole-9,10-dione] | – | – | – | 189 to 190 °C | –
20 | CC(c1ccccc1)n1c2c(c3c1-c1ccccc1C3=O)C(=O)CCC2 (racemic) [Compound 4f, DL-5-(1-phenylethyl)-5,6,7,8-tetrahydro-indeno[1,2-b]indole-9,10-dione] | 64.9 | 62.3 | 95.8 | 201 °C | inhibition at 10 µM [1]: 66%
